Experimental data reported in patent US20240216344A1, “THIAZOLIDINEDIONE ANALOGS FOR THE TREATMENT OF NAFLD AND METABOLIC DISEASES” (Cirius Therapeutics, Inc., priority 2019, published 2024).

Legend:
[1] = tested on: mice fed a diet enriched in trans fat, cholesterol and fructose; test: Preclinical NASH model: trans fat, cholesterol and fructose diet for 19 weeks, NAS and fibrosis histology; type: in vivo; details: 30 mg/kg; treatment of the mice or isolated hepatocytes
Method: Mice were fed a diet enriched in trans fat, cholesterol and fructose for 19 weeks to induce hepatic damage, which was assessed by histological changes in the NAS and fibrosis, measured by trichrome staining for collagen. MSDC-0602K (30 mg/kg) was given at either four weeks into the treatment or 16 weeks into the treatment as compared to the vehicle treated mice who were also on the modified diet. The results of mice who were kept on the normal diet are included for comparison. […] The signals for activation of the stellate cells and fibrosis are attenuated by treatment of the mice or isolated hepatocytes with MSDC-0602K.

[2] = tested on: 3-dimensional bioprinted human liver organoids; test: 3-dimensional bioprinted human liver organoids, fibrosis by collagen staining; type: cell-based; details: added to the tissue medium
[3] = tested on: patients with NASH; test: Meta-analysis of 17 NASH clinical trials: change from baseline in LFTs and biomarkers by study arm, composite outcome; type: in vivo, human; details: for % Change from Baseline ALT / % Change from Baseline AST / % Change from Baseline Alk Phos / % Change from Baseline CK-18 / % Change from Baseline ELF / % Change from Baseline GGT / % Change from Baseline HbA1c / % Change from Baseline Insulin: EMMINENCE, follow-up 12 months
Method: Meta-regressions of NASH clinical trials were performed to examine associations between biomarker and histological changes within treatment groups, and to additionally examine associations between treatment effects on biomarkers and on liver histology. Trials that met the following criteria were included: • Randomized controlled clinical trial • Paired biopsies performed at baseline and follow-up, scored using the NASH CRN system.
• Published results at baseline, follow-up, or changes from baseline for any the following liver injury markers or biomarkers: alanine aminotransferase (ALT), aspartate aminotransferase (AST), alkaline phosphatase, hemoglobin A1c (HbA1c), gamma-glutamyltransferase (GGT), insulin, cytokeratin-18 (CK-18), or Enhanced Liver Fibrosis (ELF) score. Variables selected were based on variables whose change was commonly reported in multiple studies. • Changes in histological scores for ballooning, inflammation, steatosis, and fibrosis, or the pre-determined endpoints of NASH resolution without worsening fibrosis or improvement in fibrosis with no worsening of NASH.
All results from a search of PubMed for the keywords (“nonalcoholic steatohepatitis” or “non-alcoholic steatohepatitis”) and (“clinical trial” or “randomized”) and filtered for “Clinical Trial” were reviewed. EudraCT and ClinicalTrials.gov were searched for the keyword “nonalcoholic steatohepatitis” with results further filtered for phase 2 or 3, interventional, terminated or completed trials. These three sources returned 265 (PubMed), 153 (ClinicalTrials.gov), and 56 (EudraCT) results, which were each individually reviewed for inclusion in the analysis. Data extracted by one analyst from each source that included means and SDs at baseline, end of study, and changes from baseline to end of study for continuous variables were verified and corrected by a second analyst. Where SDs were not available, any provided estimate of variation was used to derive the SD where possible; a plot-digitizer program was used where data were presented in figures only. Data for dichotomous endpoints were extracted as the number of subjects with the event and corresponding sample size.
Random effects weighted least squares meta-regressions with inverse variance weighting were used to examine the association of changes in ALT, AST, CK-18, HbA1c, fasting insulin levels, ELF, alkaline phosphatase and GGT with biopsy outcomes. CK-18[M30] was measured in all studies except EMMINENCE where CK-18[M651 was reported. These associations were assessed at an individual cohort level (within treatment group), as well as based on the treatment effect. Percent change from baseline in liver injury makers and biomarkers was used as the predictor when examining the associations in the individual cohorts with outcomes while the treatment ratio, the ratio of active to placebo with respect to the relative changes from baseline, was used as the predictor when assessing the association with the treatment effect on outcomes. Standardized mean changes (mean/SD) or standardized mean treatment differences (mean difference/pooled SD) were used for continuous outcomes and Freeman-Tukey double arcsine transformed proportions or log odds ratios were used for dichotomous outcomes. Meta-regression results were computed using the metafor package available in R. P-values <0.05 were considered statistically significant.
From the meta-regression results, ranks for the association with responses and treatment effects for each histologic outcome (changes in ballooning, inflammation, steatosis, and fibrosis; NASH resolution without worsening of fibrosis, and fibrosis improvement without worsening of NAS) were assigned across seven biomarkers (AST, GGT, HbA1c, insulin, CK-18, ELF, and alkaline phosphatase) for both the slope and the mediator p-value (ranks 1-7, with 7 assigned to the biomarker with the greatest slope or lowest p-value). An average rank across all outcomes was then assigned to each biomarker. […]

SMILES: COc1cccc(C(=O)COc2ccc(CC3SC(=O)NC3=O)cc2)c1 (stereo not drawn) [MSDC-0602K]
- signals for activation of the stellate cells and fibrosis [1]: attenuated
- effects of the nutrients (stellate cell activation, fibrosis by collagen staining) [2]: both prevented and reversed
- treatment effect on the surrogate endpoint (weighted average of changes in AST, CK-18, HbA1c) ([3]; 17 NASH clinical trials): largest treatment effects
- % Change from Baseline ALT ([3]; 62.5 mg): −15.71%
- % Change from Baseline AST ([3]; 62.5 mg): −8.08%
- % Change from Baseline Alk Phos ([3]; 62.5 mg): −6.28%
- % Change from Baseline CK-18 ([3]; 62.5 mg): −7.08%
- % Change from Baseline ELF ([3]; 62.5 mg): 1.16%
- % Change from Baseline GGT ([3]; 62.5 mg): −17.56%
- % Change from Baseline HbA1c ([3]; 62.5 mg): −4.16%
- % Change from Baseline Insulin ([3]; 62.5 mg): −10.85%
- % Change from Baseline ALT ([3]; 125 mg): −28.13%
- % Change from Baseline AST ([3]; 125 mg): −21.90%
- % Change from Baseline Alk Phos ([3]; 125 mg): −10.70%
- % Change from Baseline CK-18 ([3]; 125 mg): −22.13%
- % Change from Baseline ELF ([3]; 125 mg): 0.09%
- % Change from Baseline GGT ([3]; 125 mg): −13.47%
- % Change from Baseline HbA1c ([3]; 125 mg): −3.79%
- % Change from Baseline Insulin ([3]; 125 mg): −30.08%
- % Change from Baseline ALT ([3]; 250 mg): −23.82%
- % Change from Baseline AST ([3]; 250 mg): −11.81%
- % Change from Baseline Alk Phos ([3]; 250 mg): −18.74%
- % Change from Baseline CK-18 ([3]; 250 mg): −8.61%
- % Change from Baseline ELF ([3]; 250 mg): 0.89%
- % Change from Baseline GGT ([3]; 250 mg): −28.14%
- % Change from Baseline HbA1c ([3]; 250 mg): −3.89%
- % Change from Baseline Insulin ([3]; 250 mg): −30.62%
